# Experimental data as given in patent publication US20260199289A1, “USE OF GLYCOGEN METABOLISM INHIBITORS FOR THE TREATMENT OF CANCER” (THE UNIVERSITY OF VERMONT AND STATE AGRICULTURAL COLLEGE, priority 2022, published 2026).
# Entries after “also recorded” stand apart in the source; their conditions may differ.
# Tests used:
# 8505C cells [1] = test: SRB cell viability assay in ATC cells; format: cell-based, human
# Procedure: In Vitro Cell Staining for Measuring Drug Efficacy—Thyroid cells (4.0×10^3) were seeded in 96 well plates with 100 μl CTM and allowed to adhere overnight. 100 μl of CTM containing 2× concentration of compound was overlayed in each well for 48 hours unless otherwise indicated. Each well then received 100 μl of 10% w/v cold trichloroacetic acid (Fisher) and incubated at 4° C. for 1 hour to fix the cells. Each well was rinsed 3× with DI H2O and stained with 100 μl 0.057% w/v sulforhodamine B (SRB, Sigma-Aldrich) for 30 minutes at room temperature in the dark. Wells were washed 4× with 300 μl 1% v/v acetic acid (Fisher), and remaining SRB stain was solubilized with 200 μl of 10 mM Tris buffer, pH 10.5 (Fisher). Absorbance was measured at 564 nm with a Synergy 2 Multi-Detection Microplate Reader (Agilent Technologies) and normalized to a vehicle control. Drug synergy was evaluated using the coefficient of drug interaction (CDI) formula: CDI=AB/(A×B)×100, where AB is the percent remaining cells of an indicated combination treatment, A is the average percent remaining cells of agent 1 alone, and B is the average percent remaining cells of agent 2 alone. […] Hao et al., “Effect of Lumiracoxib on Proliferation and Apoptosis of Human Nonsmall Cell Lung Cancer Cells In vitro,” Chin Med J (Engl) 121:602-607 (2008), which is hereby incorporated by reference in its entirety. […]
# PYG isoforms = settings: cited from earlier work
# 8505C cells [2] = test: Reactive oxygen species quantification (H2DCFDA); format: cell-based, human; settings: for reactive oxygen species (ROS) levels: 8505C ATC cells
# Procedure: Quantification of Reactive Oxygen Species—Thyroid cells (1.0-2.0×10^4) were seeded in a black 96 well plate in 200 μl CTM and allowed to adhere overnight. Wells were washed with PBS and incubated with or without 25 μM H2DCFDA for 45 minutes at 37° C. in a non-CO2 incubator with compounds of interest diluted in phenol-red free RPMI (supplemented with 2 mM glutamine and 10% charcoal-stripped serum). Wells were washed with PBS and received compounds of interest diluted in phenol-red free, supplemented RPMI and incubated at 37° C. in a SpectraMax M4 Microplate Reader (Molecular Devices) to record fluorescent measurements (Ex/Em=485/535 nm) every 15 minutes overnight. Maximum fluorescence intensity was determined (~6 hours), background signal (—H2DCFDA) was subtracted from each group, and corrected values were normalized to the vehicle control.
# 8505C cells [3] = test: Cell attachment to fibronectin-coated plates; format: cell-based, human; settings: 24 hours of 50 μM CP treatment
# From the text: Cells were washed with PBS and lifted with trypsin.
# 8505C cells [4] = test: RT-qPCR of glucose transporter expression; format: cell-based, human; settings: 50 μM CP-91,149, 24 hours
# From the text: RNA Extraction and Quantitative Real-Time PCR (qRT-PCR)—Total RNA was extracted using RNeasy Plus Kit (Qiagen) according to manufacturer's protocol. cDNA was synthesized using LunaScript® RT SuperMix Kit (New England Biolabs). Gene expression to validate RNA-seq analysis was quantified by qRT-PCR using Luna® Universal qPCR Master Mix (New England Biolabs) on a QuantStudio 3 real-time PCR system (Thermo Fisher Scientific). Fold change in gene expression compared to endogenous controls was calculated using the ddCT method.
# [5] = mouse, in vivo
# Procedure: Four-week-old athymic female nude mice (outbred homozygous nude Foxn1^nu/Foxn1^nu) were purchased from Jackson Laboratory (Bar Harbor, ME, USA) and were allowed to acclimatize for one week. Mice were given food and water ad libitum. Mice were anesthetized using 3% isoflurane delivered at 1.5 L/min, and tumors were established by subcutaneously injecting 1×10^6 8505C cells with a 26G needle in 100 μL of high concentration Matrigel (Corning Inc.) diluted 1:2 with base RPMI-1640 into each flank of 24 mice. One week later, mice were sorted into four treatment groups to achieve approximately equal body weights between mice. […] Pharmacological agents were dissolved in 100% DMSO and diluted daily in 30% DMSO, 40% PEG300, and 30% PBS and incubated at 55° C. for 10 minutes prior to vortexing to encourage complete solubilization. Tumor dimensions were measured with digital calipers, and the volumes were calculated by the following formula: (Π×a×b^2)/6, where a represents the largest diameter and b is the perpendicular diameter. The body weight of each animal was taken twice a week to measure toxicity. Mice were euthanized with carbon dioxide, and the tumors were harvested, fixed with formalin (Thermo Fisher Scientific), and stored at 4° C. prior to slide sectioning and immunofluorescence analysis.
# 8505C tumors = test: Staining of excised xenograft tumors (Ki-67, cleaved PARP, PAS glycogen); format: in vivo, mouse
# [6] = immunofluorescence of excised tumors
smiles,measurement,setting,value
"CN(C)C(=O)[C@H](O)[C@H](Cc1ccccc1)NC(=O)c1cc2cc(Cl)ccc2[nH]1 [CP-91,149, 5-chloro-N-[(2S,3R)-4-(dimethylamino)-3-hydroxy-4-oxo-1-phenylbutan-2-yl]-1H-indole-2-carboxamide]",cell viability with excess (2 mM) pyruvate,"8505C cells [1]; 8505C cells, 48 hours",nearly identical to the pyruvate-depleted group
same,cell viability with excess (25 mM) glucose,"8505C cells [1]; 8505C cells, 48 hours",rescued cell viability
same,cell viability with pyruvate depletion,"8505C cells [1]; 8505C cells, 48 hours",able to compensate for loss of pyruvate
same,total cell viability,"8505C cells [1]; ATC cells, 48 hours at 50 μM",modestly but significantly reduced total cell viability
same,"cell viability, concentration and time dependence (SRB assay)",8505C cells [1]; various concentrations and time points,concentration-dependent decrease in cell viability; also recorded: decreases 8505C cell viability in a time-dependent manner
same,inhibition of PYG isoforms,PYG isoforms,inhibits all PYG isoforms
same,reactive oxygen species (ROS) levels,8505C cells [2],induced reactive oxygen species accumulation; also recorded: enhances the relative levels of reactive oxygen species
same,reactive oxygen species (ROS) levels,8505C cells [2]; listed as CP,three-fold increase; also recorded: higher in cells treated with CP compared to 2-DG
same,ROS levels with excess glucose,8505C cells [2]; 8505C cells,excess glucose reduced ROS levels only in CP-treated cells
same,cell attachment to fibronectin-coated plates,8505C cells [3],inhibits cell attachment
same,cell attachment to fibronectin-coated plates,8505C cells [3]; listed as CP,inhibited the ability of 8505C cells to attach to fibronectin-coated plates
same,SLC2A1 (GLUT1) expression,8505C cells [4]; 149,increases the expression
same,SLC2A3 (GLUT3) expression,8505C cells [4]; 149,increases the expression
same,SLC2A4 (GLUT4) expression,8505C cells [4]; 149,increases the expression
same,SLC2A1 (GLUT1) expression,8505C cells [4]; listed as CP,increase
same,SLC2A3 (GLUT3) expression,8505C cells [4]; listed as CP,increase
same,SLC2A4 (GLUT4) expression,8505C cells [4]; listed as CP,did not change
same,toxicity (body weight),[5],low toxicity
same,glycogen in tumor tissue (PAS staining),8505C tumors; excised tumors,significantly increased the level of glycogen in the tumor tissue
same,Ki-67 expression in xenograft tumors,8505C tumors; [6],reduction in Ki-67 expression
same,apoptosis (PARP cleavage) in xenograft tumors,8505C tumors; [6],induces apoptosis in vivo
same,apoptosis (PARP cleavage) in xenograft tumors,"8505C tumors; immunofluorescence of excised tumors, listed as CP",profoundly induced apoptosis
